The results in this text go back to US7368471B2, “Substituted indole acid derivatives as inhibitors of plasminogen activator inhibitor-1 (PAI-1)” (Wyeth, priority 2001, dated 2008).

Data set [1] addresses T1, recombinant human plasminogen activator inhibitor-1 (PAI-1) (Homo sapiens, UniProt P05121).
T1 construct: purchased Molecular Innovations, Royal Oak, Mich
As to the kind of experiment: Modification of the Primary Screen for the PAI-1 Inhibition (IC50). Conditions: footnote b: determined by a modification of the Primary Screen for the PAI-1 Inhibition. The class given is biochemical. Here is the method:
Primary Screen for the PAI-1 Inhibition
Test compounds are dissolved in DMSO at a final concentration of 10 mM, then diluted 100× in physiologic buffer. The inhibitory assay is initiated by the addition of the test compound (1-100 μM final concentration, maximum DMSO concentration of 0.2%) in a pH 6.6 buffer containing 140 nM recombinant human plasminogen activator inhibitor-1 (PAI-1; Molecular Innovations, Royal Oak, Mich.). Following a 1 hour incubation at room temperature, 70 nM of recombinant human tissue plasminogen activator (tPA) is added, and the combination of the test compound, PAI-1 and tPA is incubated for an additional 30 minutes. Following the second incubation, Spectrozyme-tPA (American Diagnostica, Greenwich, Conn.), a chromogenic substrate for tPA, is added and absorbance read at 405 nm at 0 and 60 minutes. Relative PAI-1 inhibition is equal to the residual tPA activity in the presence of the test compound and PAI-1. Control treatments include the complete inhibition of tPA by PAI-1 at the molar ratio employed (2:1), and the absence of any effect of the test compound on tPA alone.

T1 sequence (P05121 24-402): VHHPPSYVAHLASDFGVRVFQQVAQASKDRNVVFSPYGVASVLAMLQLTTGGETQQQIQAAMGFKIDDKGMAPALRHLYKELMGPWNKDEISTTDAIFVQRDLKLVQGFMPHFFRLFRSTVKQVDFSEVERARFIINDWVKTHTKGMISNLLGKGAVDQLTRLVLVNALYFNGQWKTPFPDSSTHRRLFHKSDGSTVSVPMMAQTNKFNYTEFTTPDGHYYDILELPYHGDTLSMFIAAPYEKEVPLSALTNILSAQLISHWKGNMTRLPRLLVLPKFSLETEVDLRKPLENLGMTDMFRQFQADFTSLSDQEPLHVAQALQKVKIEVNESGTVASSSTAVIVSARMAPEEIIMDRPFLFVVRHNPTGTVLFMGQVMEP

Regarding `Cc1ccc(Cn2cc(C(=O)C(=O)O)c3cc(-c4ccccc4)ccc32)cc1` [Example 25, [1-(4-Methylbenzyl)-5-phenyl-1H-indol-3-yl](oxo)acetic acid], the melting point (in general, the temperature of the solid-liquid transition) was 195 to 196 °C. Also, the IC50 (in general, the concentration that inhibits the measured activity by half) in data set [1] is 14 µM.

The compound `Cc1ccc(Cn2cc(C(=O)C(=O)O)c3cc(-c4ccc(OC(F)(F)F)cc4)ccc32)cc1` [Example 26, {1-(4-Methylbenzyl)-5-[4-(trifluoromethoxy)phenyl]-1H-indol-3-yl}(oxo)acetic acid] had a melting point of 192 to 193 °C. Besides, in data set [1], the IC50 worked out at 6.8 µM.

In the case of `O=C(O)C(=O)c1cn(Cc2ccc(F)cc2)c2ccc(-c3ccc(OC(F)(F)F)cc3)cc12` [Example 27, {1-(4-Fluorobenzyl)-5-[4-(trifluoromethoxy)phenyl]-1H-indol-3-yl}(oxo)acetic acid], the melting point was 158 to 159 °C. Also, the IC50 in data set [1] is 5.3 µM.

In the case of `CCCCn1cc(C(=O)C(=O)O)c2cc(-c3cccc(Cl)c3)ccc21` [Example 30, [1-Butyl-5-(3-chlorophenyl)-1H-indol-3-yl](oxo)acetic acid], the melting point lay within 108 to 109 °C. The 50% inhibitory concentration (IC50) in data set [1] amounted to 16 µM.

`CCC(CC)Cn1cc(C(=O)C(=O)O)c2cc(-c3ccc(OC(F)(F)F)cc3)ccc21` [Example 40, {1-(2-Ethylbutyl)-5-[4-(trifluoromethoxy)phenyl]-1H-indol-3-yl}(oxo)acetic acid] showed a melting point of 98 to 99 °C. Besides, the IC50 in data set [1] amounted to 8.5 µM.
